Laboratory results from patent US10597398B2, “Suppression and regeneration promoting effect of low molecular weight compound on cancer and fibrosis” (NATIONAL UNIVERSITY CORPORATION TOTTORI UNIVERSITY, priority 2015, dated 2020).

Tests used:
[1] = test system: CD44-expressing HSC2 cells; assay: CD44-expressing cells in HSC2 cells (cell sorter analysis); type: cell-based, human; settings: 48 h, 25 μM IC-2 or 0.5 μM 5-FU, 83.9% without treatment
Description: In addition, HSC2 cells were seeded at 5×10^5 cells/10-cm cell culture dish (TPP). After 24 h, the cells were treated with 0.5 μM of 5-FU or 25 μM of IC-2. Also prepared were cells without low-molecular-weight compound treatment (0 μM). After additional 48 h, the respective cells were harvested. As a primary antibody, used was a mouse anti-human CD44 antibody (Abcam Ltd., Cambridge, UK). Then, Alexa Fluor 488-labeled goat anti-mouse IgG (H+L) (Life Technologies Corp., Carlsbad, Calif.) was used. After that, a cell sorter BD bioscience FACS Aria (Becton, Dickinson and Company, Franklin Lakes, N.J.) was used for analysis.

[2] = Liver cancer model mouse, body weight; type: in vivo, mice; settings: 30 mg/kg 5-FU or 50 mg/kg IC-2 intraperitoneally every three days
Description: CD44-positive HuH-7 cells were subcutaneously transplanted in mice. Next, the engrafted mice were divided into 3 groups (DMSO group: 5 mice; 5-FU group: 4 mice; and IC-2 group: 4 mice). Then, DMSO was added to prepare 30 mg/kg of 5-FU and 50 mg/kg of IC-2 such that each liquid volume was 100 μL; and 100% DMSO, a solvent for each drug, was used as a control sample. Subsequently, each drug was dosed intraperitoneally every three days. The body weight of each mouse and the long and short diameters of a tumor were measured every three days. The tumor volume was calculated by using the following equation: Tumor volume=Long diameter×(Short diameter)^2×0.5. The volume at Day 0 was used to normalize each tumor volume, and then a graph was created. To fully evaluate a 5-FU effect, the 5-FU dose was set to an amount 2 times the regular amount 15 mg/kg used in research articles. The concentration of IC-2 corresponding to a concentration at which Wnt/β-catenin signaling was inhibited in vitro was calculated. Then, the concentration was doubled to set an IC-2 dose.

[3] = test system: CD44high DLD-1 cells; assay: CD44high cells in DLD-1 cells (FCM analysis); type: cell-based, human; settings: 48 h, 50 μM IC-2, 0.5 or 5 μM 5-FU, compared with control
Description: In addition, DLD-1 cells were seeded at 1×10^6 cells/10-cm cell culture dish. After 24 h, the cells were treated with 0.5 or 5 μM of 5-FU or 50 μM of IC-2. At additional 48 h, the cells were harvested. As a primary antibody, used was a mouse anti-human CD44 antibody (Abcam Ltd., Cambridge, UK). Then, Alexa Fluor 488-labeled goat anti-mouse IgG (H+L) (Life Technologies Corp., Carlsbad, Calif.) was used. After that, a MoFlo XDP (Beckman Coulter Inc., Fullerton, Calif.) was used for analysis.

[4] = test system: cancer stem cells (CD44) in HuH-7 cells; assay: Inhibitory effect on cancer stem cells (FCM analysis of CD44), Example 6.4; type: cell-based, human; settings: CD44, day 2, IC-2 50 μM, 5-FU 0.5 μM, compared with control 1% DMSO
Description: CD44, a cancer stem cell marker, was used as an indicator to examine an inhibitory effect of IC-2 on cancer stem cells. First, 70 to 90% confluent HuH-7 cells were harvested and seeded at 1.5×10^6 cells per 10-cm cell culture dish. After 15 h, the cells were treated with hexachlorophene (15 μM), ICG-001 (15 μM), PKF118-310 (5 μM), IC-2 (50 μM), or 5-FU (0.5 μM), and the mixture was cultured at 37° C. Each control sample used was 1% DMSO, a solvent for each compound or the anti-cancer drug. Day 2 after the drug treatment, the cells were harvested from each culture dish. The cells were centrifuged at 1000 rpm and at 4° C. for 5 min to remove a supernatant and were then washed twice with 1 mL of 0.5% FBS/2 mM EDTA/PBS. Next, the cells were suspended in 500 μL of 5% BSA/0.5% FBS/2 mM EDTA/PBS for blocking at 4° C. for 15 min.
Then, 5 μL of a mouse anti-human CD44 monoclonal antibody (156-3C11, Cell Signaling Technology Inc., Danvers, Mass.) was added to 500 μL of the cell suspension. The mixture was resuspended and subjected to a primary antibody reaction in a dark room at 4° C. for 10 min. After that, the cells were washed 3 times with 1 mL of PBS. Subsequently, 1.0 μg of Alexa Fluor 488-labeled IgG (H+L) (Life Technologies Corp., Carlsbad, Calif.) was added and the mixture was suspended. Then, a secondary antibody reaction was carried out in a dark room at 4° C. for 10 min. […]

[5] = test system: Wnt/β-catenin signal; settings: as described in Patent Literature 1; cited from earlier work
[6] = test system: cancer stem cells; settings: Fbxw7-deficient model mice, Takeishi et al. 2013; cited from earlier work

O=c1[nH]cc(F)c(=O)[nH]1 [Compound 5-FU, 5-fluorouracil, reference compound]
percentage of CD44-expressing cells [1]: 83.3%
body weight [2]: no change in the body weight
percentage of CD44high cells [3]: rather increased the percentage
number of cancer stem cells [4]: rather increased the number of cancer stem cells

COc1c(Cl)cc(Cl)c(Cl)c1Cc1c(Cl)c(Cl)cc(Cl)c1OC [HC-1, hexachlorophene methyl ether bis(2,3,5-trichloro-6-methoxyphenyl)methane]
Wnt/β-catenin signal in a mesenchymal stem cell and differentiation into hepatocytes [5]: inhibit a Wnt/β-catenin signal in a mesenchymal stem cell, thereby inducing differentiation of the mesenchymal stem cell into hepatocytes

Cc1ccc(NC(=O)c2ccc(CN3CCN(C)CC3)cc2)cc1Nc1nccc(-c2cccnc2)n1 [imatinib]
cancer stem cells [6]: cancer stem cells were killed
